Experiments:
HepG2 cells = test: Test Example 2: inhibition of apolipoprotein B secretion from HepG2 cells, ELISA (also used for metabolites in Test Example 8); type: cell-based; conditions: Homo sapiens, 24 hours, apo B in supernatant by ELISA, read-out: Test Example 2 Inhibition of apo B secretion IC50
Outline: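 HepG2 cells cultured 24 h, then exposed 24 h to compounds or metabolites in medium with 0.5% DMSO. Secreted apo B in supernatant quantified by sandwich ELISA (HRP, ABTS, 405 nm) against purified human apo B standard; % inhibition vs DMSO group, IC50 derived.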

Syrian hamsters = test: Test Example 3: olive oil-loading test (inhibition of fat absorption, plasma TG); type: in vivo; conditions: Mesocricetus auratus, po, plasma TG 4 hours after olive oil, read-out: Test Example 3 Inhibition of fat absorption after olive oil-loading in Hamster Inhibition rate (%); for inhibition in vivo at 3 mg/kg: 3 mg/kg p.o.; for inhibition in vivo at 10 mg/kg: 10 mg/kg p.o.
Procedure: Syrian hamsters (9-11 weeks of age) under non-fasted conditions were used in the test. Blood was collected previously from orbital venous plexus, and a sample was suspended in 0.5% methyl cellulose (vehicle) and the suspension was forced to be administered orally to the hamsters at a dose of 0.3, 1, 3 or 10 mg/2 mL/kg. Only vehicle in the same volume was administered to the control group. Olive oil (2 mL/kg) was forced to be administered orally 30 minutes after the administration of the sample, and blood was collected from orbital venous plexus 4 hours later. Plasma was recovered from the blood, and the amount of triglyceride (TG) in the plasma was determined by automatic analyzer (Hitachi Co.). The data was expressed in terms of ΔTG(mg/dL)=the value at 4th hr minus the value before administration. Inhibition rate (%) was calculated from the data obtained on the basis of the following equation.
Inhibition rate (%)=100×(1 minus ΔTG of sample group/ΔTG of control group).

Row | Compound | IC50 (HepG2 cells) | inhibition in vivo at 3 mg/kg (Syrian hamsters) | inhibition in vivo at 10 mg/kg (Syrian hamsters)
1 | CCNC(=O)C(COC(=O)Cc1ccc(NC(=O)c2ccccc2-c2ccc(C(F)(F)F)cc2)cc1)(C(=O)NCC)c1ccccc1 [Example 1, 4-[(4′-Trifluoromethylbiphenyl-2-carbonyl)amino]phenyl-acetic acid 2,2-bisethylcarbamoyl-2-phenylethyl ester] | 5.8 nM |  | 
2 | CCOC(=O)C(COC(=O)Cc1ccc(OC(=O)c2ccccc2-c2ccc(C(F)(F)F)cc2)cc1)(C(=O)OCC)c1ccccc1 [Example 1-2, 2-Phenyl-2-{2-[4-(4′-trifluoromethylbiphenyl-2-carbonyloxy)phenyl]acetoxymethyl}malonic acid diethyl ester] | 850 nM |  | 
3 | CCNC(=O)C(COC(=O)Cc1ccc(NC(=O)c2ccccc2-c2ccc(C(F)(F)F)cc2)c(CC)c1)(C(=O)NCC)c1ccccc1 [Example 1-5, {3-Ethyl-4-[(4′-trifluoromethylbiphenyl-2-carbonyl)amino]phenyl}acetic acid 2,2-bisethylcarbamoyl-2-phenylethyl ester] | 0.65 nM | 59% | 
4 | O=C(Cc1ccc(NC(=O)c2ccccc2-c2ccc(C(F)(F)F)cc2)cc1)OCC1(C(=O)NCC(F)(F)F)c2ccccc2-c2ccccc21 [Example 1-6] | 5.5 nM |  | 54%
5 | O=C(Cc1ccc(NC(=O)c2ccccc2-c2ccc(C(F)(F)F)cc2)cc1)OCC(C(=O)NCC(F)(F)F)(C(=O)NCC(F)(F)F)c1ccccc1 [Example 1-12] | 63 nM |  | 
6 | COC(=O)C(COC(=O)Cc1ccc(NC(=O)c2ccccc2-c2ccc(C(F)(F)F)cc2)cc1)(C(=O)OC)c1ccccc1 [Example 1-13] | 170 nM |  | 
7 | CCCNC(=O)C(COC(=O)Cc1ccc(NC(=O)c2ccccc2-c2ccc(C(F)(F)F)cc2)cc1)(C(=O)NCCC)c1ccccc1 [Example 1-35] | 6.9 nM |  | 
8 | CCNC(=O)C(COC(=O)Cc1ccc(NC(=O)c2ccccc2-c2ccc(C(F)(F)F)cc2)c(C(=O)N(C)C)c1)(C(=O)NCC)c1ccccc1 [Example 2, {3-Dimethylcarbamoyl-4-[(4′-trifluoromethylbiphenyl-2-carbonyl)amino]phenyl}acetic acid 2,2-bisethylcarbamoyl-2-phenylethyl ester] | 1.5 nM |  | 95%
9 | CCCNC(=O)C(COC(=O)Cc1ccc(NC(=O)c2ccccc2-c2ccc(C(F)(F)F)cc2)c(C(=O)N(C)C)c1)(C(=O)NCCC)c1ccccc1 [Example 2-2] | 1.3 nM |  | 96%
10 | CCNC(=O)C(COC(=O)Cc1ccc(NC(=O)c2ccccc2-c2ccc(C(F)(F)F)cc2)c(C(=O)NC)c1)(C(=O)NCC)c1ccccc1 [Example 2-3] | 2 nM | 68% | 
11 | CCNC(=O)C(CCOC(=O)Cc1ccc(NC(=O)c2ccccc2-c2ccc(C(F)(F)F)cc2)c(C(=O)N(C)C)c1)(C(=O)NCC)c1ccccc1 [Example 2-4] | 0.29 nM | 78% | 
12 | CCOC(=O)C(COC(=O)Cc1ccc(NC(=O)c2ccccc2-c2ccc(C(F)(F)F)cc2)c(C(=O)N(C)C)c1)(C(=O)OCC)c1ccccc1 [Example 2-5] | 0.55 nM | 70% | 
13 | CCNC(=O)C(CCCOC(=O)Cc1ccc(NC(=O)c2ccccc2-c2ccc(C(F)(F)F)cc2)c(C(=O)N(C)C)c1)(C(=O)NCC)c1ccccc1 [Example 2-7] | 0.56 nM | 58% | 
14 | CCOC(=O)C(COC(=O)Cc1ccc(NC(=O)c2ccccc2-c2ccc(C(F)(F)F)cc2)c(C(=O)N2CCCC2)c1)(C(=O)OCC)c1ccccc1 [Example 2-22] | 0.44 nM | 61% | 
15 | COC(=O)C(COC(=O)Cc1ccc(NC(=O)c2ccccc2-c2ccc(C(F)(F)F)cc2)c(C(=O)N(C)C)c1)(C(=O)OC)c1ccccc1 [Example 2-39] | 0.76 nM | 68% | 
16 | CCNC(=O)C(COC(=O)Cc1ccc(NC(=O)c2ccccc2-c2ccc(C(F)(F)F)cc2)c(OC)c1)(C(=O)NCC)c1ccccc1 [Example 3-3] | 1 nM |  | 78%
17 | CCNC(=O)C(CCOC(=O)Cc1ccc(NC(=O)c2ccccc2-c2ccc(C(F)(F)F)cc2)c(OC)c1)(C(=O)NCC)c1ccccc1 [Example 3-6] | 0.63 nM | 52% | 
18 | CCNC(=O)C(CCOC(=O)Cc1ccc(NC(=O)c2ccccc2-c2ccc(C(F)(F)F)cc2)c(OCC)c1)(C(=O)NCC)c1ccccc1 [Example 3-8] | 0.38 nM | 60% | 
19 | CCNC(=O)C(COC(=O)Cc1ccc(NC(=O)c2ccccc2-c2ccc(C(F)(F)F)cc2)c(OC(C)C)c1)(C(=O)NCC)c1ccccc1 [Example 3-10] | 0.31 nM | 85% | 

Source: patent publication US7625948B2, “Ester compound and medicinal use thereof” (Japan Tobacco Inc., priority 2002, dated 2009)
